# Results: BindingDB's records for patent US20240109917 (Actelion Pharmaceuticals, 2024)
# How the values were obtained:
# [1] = molecular target: Vascular endothelial growth factor receptor 2 (Homo sapiens, UniProt P35968); assay: VEGFR ADP GLO Assay
# Protocol: Assay Procedure:Step 1. Dispensing inhibitors/controls: Using Echo, dispense 10 nL/well compound serial dilutions in DMSO to columns 1-22 (in 384-well plates) or columns 1-44 (in 1536-well plates). Dilution series=11 pt, 3-fold dilutions. The top compound concentration in the source plate is 4 mM. The top compound concentration in the assay plate is 10 uM. Using Echo, dispense 10 nl/well DMSO to column 23 (in 384-well plates) or columns 45-47 (in 1536-well plates). These wells will serve as negative control wells Using Echo, dispense 10 nl/well 400 uM TAK-593 in DMSO to column 24 (in 384-well plates) or column 48 (in 1536-well plates). The final concentration of TAK-593 in the assay should be 1 uM. These wells will serve as positive control wells.Step 2. Pre-incubation of inhibitors with kinase: Add 2 μL/well 2× kinase solution. Centrifuge at 1000 rpm for 1 min. Incubate at room temperature for 30 min.Step 3. Kinase cascade reaction: Add 2 μL/well 2× substrate/ATP solution to initiate kinase reactions. Centrifuge at 1000 rpm for 1 min. Incubate at room temperature for 180 min.Final concentrations of components in the assay:[VEGFR2]=5 nM;[ATP]=1.2 mM;[Srctide]=1 mg/mL;[DMSO] G; 1%.Step 4. Quench: Add 2 uL/well ADP Glo Reagent+0.05% CHAPS. […] Centrifuge at 1000 rpm for 1 min; Incubate at room temperature for 1 hour; Read Luminescence on a plate reader.
# [2] = molecular target: Platelet-derived growth factor receptor beta (Homo sapiens, UniProt P09619); assay: PDGFRβ HTRF Assay
# Chain of Platelet-derived growth factor receptor beta (P09619 whole entry): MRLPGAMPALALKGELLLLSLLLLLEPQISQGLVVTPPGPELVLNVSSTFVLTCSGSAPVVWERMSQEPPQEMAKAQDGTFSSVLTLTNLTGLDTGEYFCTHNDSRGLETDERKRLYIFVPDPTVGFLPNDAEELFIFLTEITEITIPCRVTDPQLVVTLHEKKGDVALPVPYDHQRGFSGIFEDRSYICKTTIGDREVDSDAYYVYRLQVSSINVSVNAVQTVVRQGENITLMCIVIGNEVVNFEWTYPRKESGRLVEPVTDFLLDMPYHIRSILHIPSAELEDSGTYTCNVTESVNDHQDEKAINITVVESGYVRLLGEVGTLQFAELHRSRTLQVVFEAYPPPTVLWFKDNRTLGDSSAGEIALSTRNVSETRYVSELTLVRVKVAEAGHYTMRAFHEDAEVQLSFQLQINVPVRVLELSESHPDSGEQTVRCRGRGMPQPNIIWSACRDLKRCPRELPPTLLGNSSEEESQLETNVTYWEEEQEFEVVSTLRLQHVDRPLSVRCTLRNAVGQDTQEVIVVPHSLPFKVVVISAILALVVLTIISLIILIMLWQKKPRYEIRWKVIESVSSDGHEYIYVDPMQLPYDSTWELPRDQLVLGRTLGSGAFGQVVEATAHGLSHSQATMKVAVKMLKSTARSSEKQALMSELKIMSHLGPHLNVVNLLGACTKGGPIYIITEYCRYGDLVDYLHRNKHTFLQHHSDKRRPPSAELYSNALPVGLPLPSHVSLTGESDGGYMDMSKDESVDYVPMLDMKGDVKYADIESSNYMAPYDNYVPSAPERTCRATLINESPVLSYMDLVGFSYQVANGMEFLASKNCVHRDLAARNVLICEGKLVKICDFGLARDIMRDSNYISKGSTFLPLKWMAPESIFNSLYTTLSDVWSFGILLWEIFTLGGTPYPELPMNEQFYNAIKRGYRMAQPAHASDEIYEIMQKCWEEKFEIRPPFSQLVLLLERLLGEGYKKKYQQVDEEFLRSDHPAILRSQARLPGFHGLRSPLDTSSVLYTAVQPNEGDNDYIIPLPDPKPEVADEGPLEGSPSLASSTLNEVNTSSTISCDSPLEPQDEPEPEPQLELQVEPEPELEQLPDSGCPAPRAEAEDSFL
# Protocol: Stock Solutions:Assay buffer stock solution, contains 50 mM Hepes, 10 mM MgCl2, 1 mM EGTA, and 0.01% Brij-35, 0.01% ovalbumin, 2 mM DTT at pH 7.5, in molecular biology grade water. […] Store at −80° C. in aliquots.TK-biotin peptide, 0.5 μM in molecular biology grade water, store at −20° C. in aliquots.ATP, 100 mM in molecular biology grade water, store at −20° C. in aliquots.HTRF KinEASE-TK kit: Allow the contents of the Cisbio kit to warm up to room temperature before use. This kit contains HTRF detection buffer, TK-Antibody labeled with Eu3+-cryptate, TK-substrate biotin and Streptavidin-XL665.TK Substrate-Biotin, reconstitute 500 μg lyopholized with 574 μL molecular biology grade water to prepare a 500 μM stock; After use, aliquot the rest and store at −20° C.TK Antibody-Cryptate, reconstitute lyophilized with 1 mL of molecular biology grade water (100× solution) then add 99 mL detection buffer to prepare a ready to use TK-antibody-cryptate solution; the concentration of the TK-antibody-cryptate reagent is not known.
# Chain of Vascular endothelial growth factor receptor 2 (P35968 whole entry): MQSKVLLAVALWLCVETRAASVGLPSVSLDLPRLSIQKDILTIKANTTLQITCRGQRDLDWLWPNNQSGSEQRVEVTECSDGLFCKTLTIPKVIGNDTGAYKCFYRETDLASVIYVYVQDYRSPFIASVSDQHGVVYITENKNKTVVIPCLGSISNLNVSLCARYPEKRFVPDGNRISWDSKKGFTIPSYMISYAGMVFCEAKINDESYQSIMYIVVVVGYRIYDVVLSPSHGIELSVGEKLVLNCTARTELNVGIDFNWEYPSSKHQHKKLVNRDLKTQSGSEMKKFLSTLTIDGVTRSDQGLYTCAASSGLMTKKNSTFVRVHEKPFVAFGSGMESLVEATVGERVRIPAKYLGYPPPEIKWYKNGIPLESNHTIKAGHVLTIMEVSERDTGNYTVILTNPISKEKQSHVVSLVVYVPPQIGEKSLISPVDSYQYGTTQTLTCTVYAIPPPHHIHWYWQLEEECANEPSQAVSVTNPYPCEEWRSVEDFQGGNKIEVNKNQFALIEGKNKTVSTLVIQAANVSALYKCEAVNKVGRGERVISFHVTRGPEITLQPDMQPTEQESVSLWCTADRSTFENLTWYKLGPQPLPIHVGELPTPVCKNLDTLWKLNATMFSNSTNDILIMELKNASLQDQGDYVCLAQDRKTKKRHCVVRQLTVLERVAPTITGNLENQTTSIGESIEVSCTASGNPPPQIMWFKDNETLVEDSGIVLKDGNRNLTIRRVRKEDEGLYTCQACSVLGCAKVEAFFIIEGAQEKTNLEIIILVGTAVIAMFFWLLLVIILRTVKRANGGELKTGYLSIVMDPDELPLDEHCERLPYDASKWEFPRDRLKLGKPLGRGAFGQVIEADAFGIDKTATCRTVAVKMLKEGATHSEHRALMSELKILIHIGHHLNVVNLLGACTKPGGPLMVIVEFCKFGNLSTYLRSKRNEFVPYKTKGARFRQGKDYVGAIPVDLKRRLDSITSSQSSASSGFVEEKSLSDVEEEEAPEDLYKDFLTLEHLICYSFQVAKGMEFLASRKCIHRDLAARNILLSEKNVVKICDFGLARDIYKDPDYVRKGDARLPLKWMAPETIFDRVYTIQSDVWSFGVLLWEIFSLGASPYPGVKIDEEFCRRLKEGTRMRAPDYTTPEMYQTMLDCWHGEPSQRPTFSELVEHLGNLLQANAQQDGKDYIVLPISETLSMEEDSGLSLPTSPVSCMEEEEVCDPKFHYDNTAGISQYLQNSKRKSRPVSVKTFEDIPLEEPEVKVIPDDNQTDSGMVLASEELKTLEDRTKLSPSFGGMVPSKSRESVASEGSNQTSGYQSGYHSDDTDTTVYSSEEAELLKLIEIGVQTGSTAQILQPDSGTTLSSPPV
structure (smiles),measurement,setting,value
"CCOC1CN(CC(=O)Nc2cnc(C)c(NC(=O)c3cnn4cc(-c5cccnc5OC)sc34)c2)C1 [US20240109917, Example 401]",IC50,[1],> 7500 nM
same,IC50,[2],0.3 nM
